Results reported in US10030016B2 (Sunesis Pharmaceuticals, Inc., priority 2009, dated 2018).
Where a name gives a salt, the structure may show the parent alone. Read-outs that look alike come from different tables or passages of the source.

How the values were obtained:
PDK1 = PDK1 (Homo sapiens (Human), UniProt O15530); assay: PDK1 kinase assay (coupled PDK1/AKT/FAM-crosstide assay, IMAP fluorescence polarization); format: biochemical
Outline: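 Coupled cascade: 0.75 nM PDK1 (51-359) → 10 nM AKT2 (140-467-PIFtide) → 100 nM FAM-crosstide. ATP 40 μM, 25° C, 30 min. IMAP FP (ex 485/em 530), 2 h binding. ΔmP vs conc, 4-param fit.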

[1] = test system: phospho-akt (Thr308) in PC-3 cells; assay: Inhibition of phospho-akt (Thr308) in PC-3 cells, MSD phospho-akt 308 ELISA kit; format: cell-based; settings: Homo sapiens, 2 hours, no serum, read-out: EC50
Outline: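 PC-3 cells were seeded overnight in growth medium with 10% FBS, then exposed to compound serially diluted threefold in serum-free medium for 2 hours. Lysates were captured overnight at 4 degrees on MSD plates and phospho-Akt Thr308 was detected electrochemiluminescently, against DMSO high and 5 μM wortmannin low controls.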

[2] = inhibition of P308 Akt in PC-3 cells using MSD
[3] = inhibition of phospo-PDK1 in vitro
[4] = inhibition of P308 Akt in PC-3 cells, MSD

PDK1, sequence (O15530 51-359): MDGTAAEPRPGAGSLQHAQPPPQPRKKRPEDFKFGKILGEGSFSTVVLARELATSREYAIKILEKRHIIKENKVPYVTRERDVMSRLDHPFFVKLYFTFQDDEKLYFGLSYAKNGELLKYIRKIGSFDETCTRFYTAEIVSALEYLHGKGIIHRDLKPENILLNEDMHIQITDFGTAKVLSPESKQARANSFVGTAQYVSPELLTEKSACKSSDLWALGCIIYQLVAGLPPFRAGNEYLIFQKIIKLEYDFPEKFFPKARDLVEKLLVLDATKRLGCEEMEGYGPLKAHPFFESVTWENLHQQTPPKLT

SMILES	IC50 (PDK1; inhibition of PDK1 in vitro) [nM]	EC50 [1, 2] [nM]	IC50 (PDK1; [3]) [nM]	EC50 [1, 4] [nM]	also measured
C[C@H](NC(=O)c1cc(C#N)cnc1NCc1ccc(-c2cnc3[nH]ncc3c2)cc1)c1ccc(F)c(F)c1 [Example 395, 5-Cyano-N-[(S)-1-(3,4-difluoro-phenyl)-ethyl]-2-[4-(1H-pyrazolo[3,4-b]pyridin-5-yl)-benzylamino]-nicotinamide]	< 100	< 1000			
Nc1ncnc2ccc(-c3ccc(CNc4nccc5ncn(Cc6ccc(F)c(F)c6)c(=O)c45)s3)cc12 [Ex. 7.8]			< 100	< 1000	
Nc1ncc(-c2ccc(CNc3ncc(C(F)(F)F)cc3C(=O)Nc3ccc(F)cc3)cc2)nc1O[C@@H]1CCC[C@H]1N [Example 173, 2-{4-[5-Amino-6-((1R,2R)-2-amino-cyclopentyloxy)-pyrazin-2-yl]-benzylamino}-N-(4-fluoro-phenyl)-5-trifluoromethyl-nicotinamide]	< 100	< 1000			
Nc1ncc(-c2ccc(CNc3ncc(C(F)(F)F)cc3C(=O)Nc3ccc(F)cc3)cc2)nc1CC[C@@H]1CCCN1 [Example 75, 2-{4-[5-Amino-6-((S)-2-pyrrolidin-2-yl-ethyl)-pyrazin-2-yl]-benzylamino}-N-(4-fluoro-phenyl)-5-trifluoromethyl-nicotinamide]	< 100	1000 to 10000			
C[C@H](NC(=O)c1cc(C#N)cnc1NCc1ccc(-c2cnc3[nH]nc(CCCN(C)C)c3c2)cc1)c1ccc(F)cc1 [Example 149, (S)-5-cyano-2-(4-(3-(3-(dimethylamino)propyl)-1H-pyrazolo[3,4-b]pyridin-5-yl)benzyl-amino)-N-(1-(4-fluorophenyl)ethyl) nicotinamide]	< 100	< 1000			
CNc1ncnc2ccc(-c3ccc(CNc4ncccc4C(=O)NCc4ccc(F)c(F)c4)s3)cc12 [Example 4.24, N-(3,4-difluorobenzyl)-2-(((5-(4-(methylamino)quinazolin-6-yl)thiophen-2-yl)methyl)amino)nicotinamide]			< 100	1000 to 10000	
C[C@H](NC(=O)c1cc(C#N)cnc1NCc1cnc(-c2cnc3[nH]ncc3c2)cn1)c1ccc(F)cc1 [Example 63, 5-Cyano-N-[(S)-1-(4-fluoro-phenyl)-ethyl]-2-{[5-(1H-pyrazolo[3,4-b]pyridin-5-yl)-pyrazin-2-ylmethyl]-amino}-nicotinamide]	< 100	> 10000			
Nc1ncnc2ccc(-c3ccc(CNc4ncc(S(=O)(=O)N5CCCCC5)cc4C(=O)NCc4ccc(F)c(F)c4)s3)cc12 [Example 8.6.8, 2-(((5-(4-aminoquinazolin-6-yl)thiophen-2-yl)methyl)amino)-N-(3,4-difluorobenzyl)-5-(piperidin-1-ylsulfonyl) nicotinamide]			100 to 1000	> 10000	
CCCc1n[nH]c2ncc(-c3ccc(CNc4ncc(C#N)cc4C(=O)N[C@@H](C)c4ccc(F)cc4)cc3)cc12 [Example 147, (S)-5-cyano-N-(1-(4-fluorophenyl)ethyl)-2-(4-(3-propyl-1H-pyrazolo[3,4-b]pyridin-5-yl)benzyl-amino)nicotinamide]	< 100	1000 to 10000			
C[C@H](NC(=O)c1cccnc1NCc1ccc(-c2ccc3ncc(N(C)C)nc3c2)s1)c1ccc(F)c(F)c1 [Example 4.27, (S)-N-(1-(3,4-difluoro-phenyl)ethyl)-2-(((5-(3-(dimethylamino)quinoxalin-6-yl)thiophen-2-yl)methyl)amino)nicotinamide]			1000 to 5000	> 10000	
C[C@H](NC(=O)c1cc(C#N)cnc1NCc1ccc(-c2cnc(N)c(CCCCN)n2)cc1)c1ccc(F)cc1 [Example 71, 2-{4-[5-Amino-6-(4-amino-butyl)-pyrazin-2-yl]-benzyl-amino}-5-cyano-N-[(S)-1-(4-fluoro-phenyl)-ethyl]-nicotinamide]	< 100	< 1000			
C[C@H](NC(=O)c1cc(C#N)cnc1NCc1ccc(-c2ccc(N)nc2)cc1F)c1ccc(F)cc1 [Example 128]	< 100	1000 to 10000			
C[C@H](NC(=O)c1cccnc1NCc1ccc(-c2ccc3ncnc(N)c3c2)s1)c1ccc(F)c(F)c1 [Example 3.41, (S)-2-(((5-(4-aminoquinazolin-6-yl)thiophen-2-yl)methyl)amino)-N-(1-(3,4-difluorophenyl)ethyl) nicotinamide (TFA salt)]			< 100		EC50 ([1]; PC-3, 2 h, inhibition of P308 Akt in PC-3 cells, MSD): < 1000 nM
C[C@H](NC(=O)c1cc(C#N)cnc1NCc1ccc(-c2cnc3[nH]nc(CN)c3c2)cc1)c1ccc(F)cc1 [Example 152, (S)-2-(4-(3-(aminomethyl)-1H-pyrazolo[3,4-b]pyridin-5-yl)benzyl-amino)-5-cyano-N-(1-(4-fluorophenyl)ethyl)nicotinamide]	< 100	1000 to 10000			
C[C@@H](Nc1ncc(C(F)(F)F)cc1C(=O)Nc1ccc(F)cc1)c1ccc(-c2cnc3[nH]nc(N)c3n2)cc1 [Example 412, 2-{(R)-1-[4-(3-Amino-1H-pyrazolo[3,4-b]pyrazin-5-yl)-phenyl]-ethylamino}-N-(4-fluoro-phenyl)-5-trifluoromethyl-nicotinamide]	< 100	1000 to 10000			
C[C@@H](NC(=O)c1cccnc1NCc1ccc(-c2ccc3ncnc(N)c3c2)s1)c1ccc(F)cc1 [Example 3.14, 2-({[5-(4-aminoquinazolin-6-yl)thiophen-2-yl]methyl}amino)-N-[(1R)-1-{4-fluorophenyl)ethyl]pyridine-3-carboxamide (TFA salt)]			> 5000	> 10000	
Cn1cc(-c2ccc(CNc3ncc(C#N)nc3C(=O)NCc3cncc(F)c3)cc2)c2c(N)ncnc21 [Example 28, 3-(4-(4-amino-7-methyl-7H-pyrrolo[2,3-d]pyrimidin-5-yl)benzylamino)-6-cyano-N-((5-fluoropyridin-3-yl)methyl)pyrazine-2-carboxamide]			< 100	< 1000	
C[C@H](NC(=O)c1cc(C#N)cnc1NCc1ccc(-c2cnc3[nH]c(=O)[nH]c3c2)cc1)c1ccc(F)cc1 [Example 116, (S)-5-cyano-N-(1-(4-fluorophenyl)ethyl)-2-(4-(2-oxo-2,3-dihydro-1H-imidazo[4,5-b]pyridin-6-yl)benzyl-amino)nicotinamide]	< 100	< 1000			

Continued, in another order:

IC50 (PDK1; inhibition of PDK1 in vitro) [nM]	EC50 [1, 2] [nM]	IC50 (PDK1; [3]) [nM]	EC50 [1, 4] [nM]	SMILES	also measured
> 5000	> 10000			C[C@H](NC(=O)c1cc(C#N)cnc1NCc1ccc(-c2cnc(NCCCN(C)C)cn2)cc1)c1ccc(F)cc1 [Example 225, 5-Cyano-2-{4-[5-(3-dimethylamino-propylamino)-pyrazin-2-yl]-benzylamino}-N-[(S)-1-(4-fluoro-phenyl)-ethyl]-nicotinamide]	
> 5000	> 10000			N#Cc1cnc(NCc2ccc(Oc3cccnc3N)cc2)c(C(=O)NCc2ccc(F)c(F)c2)c1 [Example 313, 2-(4-(2-aminopyridin-3-yloxy)benzylamino)-5-cyano-N-(3,4-difluorobenzyl) nicotinamide]	
100 to 1000				C[C@H](NC(=O)c1cccnc1NCc1ccc(-c2cn(C3CCC3)c3ncnc(N)c23)cc1)c1ccc(F)cc1 [Example 346, (S)-2-(4-(4-amino-7-cyclobutyl-7H-pyrrolo [2,3-d]pyrimidin-5-yl)benzylamino)-N-(1-(4-fluorophenyl)ethyl)nicotinamide]	EC50 ([1]; PC-3, 2 h, inhibition of P308 Akt in PC-3 cells using MSD): < 1000 nM
		100 to 1000	> 10000	CC(C)Oc1cc(CNc2ncccc2C(=O)NCc2ccc(F)c(F)c2)cc(-c2ccc3ncncc3c2)c1 [Example 5.3, N-(3,4-difluorobenzyl)-2-(3-isopropoxy-5-(quinazolin-6-yl)benzylamino) nicotinamide]	
		< 100	< 1000	N#Cc1cnc(NCc2ccc(-c3cnc4[nH]nc(N)c4c3)cc2)c(C(=O)NCc2ccc(F)c(F)c2)n1 [Example 31, 3-(4-(3-amino-1H-pyrazolo[3,4-b]pyridin-5-yl)benzylamino)-6-cyano-N-(3,4-difluorobenzyl) pyrazine-2-carboxamide]	
1000 to 5000	> 10000			Nc1n[nH]c2ncc(-c3ccc(CNc4ncc(C(F)(F)F)cc4C(=O)NC4COC4)cc3)cc12 [Example 298, 2-(4-(3-amino-1H-pyrazolo [3,4-b]pyridin-5-yl)benzylamino)-N-(oxetan-3-yl)-5-(trifluoromethyl) nicotinamide]	
< 100	< 1000			C[C@H](NC(=O)c1cc(C#N)cnc1NCc1ccc(-c2cnc(N)c(C(=O)NC3CC3)n2)cc1)c1ccc(F)cc1 [Example 218, (S)-3-amino-6-(4-((5-cyano-3-(1-(4-fluorophenyl)ethylcarbamoyl)pyridin-2-ylamino)methyl)phenyl)-N-cyclopropylpyrazine-2-carboxamide]	
		100 to 1000	1000 to 10000	C[C@H](NC(=O)c1cccnc1NCc1ccc(-c2cc3c(N)ncnc3cn2)s1)c1ccc(F)c(F)c1 [Example 7.16, 2-({[5-(4-aminopyrido[3,4-d]pyrimidin-6-yl)thiophen-2-yl]methyl}amino)-N-[(1S)-1-(3,4-difluorophenyl)ethyl] pyridine-3-carboxamide]	
< 100	< 1000			C[C@H](NC(=O)c1nc(C#N)cnc1NCC1CCC(c2cnc3[nH]nc(N)c3c2)CC1)c1ccc(F)c(F)c1 (stereo partly drawn) [Example 60, (S)-3-((4-(3-amino-1H-pyrazolo[3,4-b]pyridin-5-yl)cyclohexyl)methylamino)-6-cyano-N-(1-(3,4-difluorophenyl)ethyl)pyrazine-2-carboxamide]	
